Data from ChEMBL document CHEMBL4251700, “Novel Staphyloxanthin Inhibitors with Improved Potency against Multidrug Resistant Staphylococcus aureus” (ACS Med Chem Lett, 2018).
Substitutions are numbered along the chain they refer to. The source made the active and inactive calls. The rule behind the calls is not given here.

Legend:
[1] = target: T1, 4,4'-diapophytoene desaturase (4,4'-diaponeurosporene-forming) (Staphylococcus aureus (strain Newman), UniProt O07855); test: Inhibition of CrtN in Staphylococcus aureus Newman assessed as reduction in staphyloxanthin levels after 48 hrs by spectrophotometric method-based pigment inhibition assay; set-up: species or system Staphylococcus aureus subsp. aureus str. Newman
T1 sequence (O07855 whole entry): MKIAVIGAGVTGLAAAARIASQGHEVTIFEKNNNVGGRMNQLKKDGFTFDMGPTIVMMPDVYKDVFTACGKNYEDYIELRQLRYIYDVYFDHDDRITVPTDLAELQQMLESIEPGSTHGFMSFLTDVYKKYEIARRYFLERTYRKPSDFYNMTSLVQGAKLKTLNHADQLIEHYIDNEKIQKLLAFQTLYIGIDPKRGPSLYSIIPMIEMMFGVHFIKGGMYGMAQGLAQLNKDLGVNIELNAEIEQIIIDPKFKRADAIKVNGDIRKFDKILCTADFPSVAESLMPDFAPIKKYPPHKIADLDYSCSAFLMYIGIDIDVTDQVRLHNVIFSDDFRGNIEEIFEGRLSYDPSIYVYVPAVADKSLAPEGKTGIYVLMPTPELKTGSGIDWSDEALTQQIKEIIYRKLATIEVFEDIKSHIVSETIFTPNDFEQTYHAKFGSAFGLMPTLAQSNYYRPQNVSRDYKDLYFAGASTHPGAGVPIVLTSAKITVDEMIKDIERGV

[2] = Half life in human liver microsomes at 2 uM by LC-MS/MS analysis; format: ADME, microsome
Staphylococcus aureus [3] = test: Antibacterial activity against vancomycin-intermediate Staphylococcus aureus Mu50 infected in BALB/c mouse assessed as reduction of bacterial burden in heart at 0.1 mg, ip bid for 3.5 days administered 6 hrs post bacterial infection measured 84 hrs post infection relative to control; format: functional
Staphylococcus aureus [4] = test: Antibacterial activity against vancomycin-intermediate Staphylococcus aureus Mu50 infected in BALB/c mouse assessed as reduction of bacterial burden in heart at 0.4 mg, ip bid for 3.5 days administered 6 hrs post bacterial infection measured 84 hrs post infection relative to control; format: functional
Staphylococcus aureus [5] = test: Antibacterial activity against vancomycin-intermediate Staphylococcus aureus Mu50 infected in BALB/c mouse assessed as reduction of bacterial burden in liver at 0.1 mg, ip bid for 3.5 days administered 6 hrs post bacterial infection measured 84 hrs post infection; format: functional, organism-based
Staphylococcus aureus [6] = test: Antibacterial activity against vancomycin-intermediate Staphylococcus aureus Mu50 infected in BALB/c mouse assessed as reduction of bacterial burden in liver at 0.4 mg, ip bid for 3.5 days administered 6 hrs post bacterial infection measured 84 hrs post infection; format: functional, organism-based
Staphylococcus aureus [7] = test: Antibacterial activity against vancomycin-intermediate Staphylococcus aureus Mu50 infected in BALB/c mouse assessed as reduction of bacterial burden in liver at 0.1 mg, ip bid administered at 12 hrs prior to bacterial infection dosed at 12 intervals for 4.5 days; format: functional, organism-based
Staphylococcus aureus [8] = test: Antibacterial activity against vancomycin-intermediate Staphylococcus aureus Mu50 infected in BALB/c mouse assessed as reduction of bacterial burden in liver at 0.4 mg, ip bid administered at 12 hrs prior to bacterial infection dosed at 12 intervals for 4.5 days; format: functional, organism-based
Staphylococcus aureus [9] = test: Antibacterial activity against linezolid-resistant Staphylococcus aureus NRS271 infected in BALB/c mouse assessed as reduction of bacterial burden in liver at 0.1 mg, ip bid administered at 12 hrs prior to bacterial infection dosed at 12 intervals for 4.5 days; format: functional, organism-based
Staphylococcus aureus [10] = test: Antibacterial activity against linezolid-resistant Staphylococcus aureus NRS271 infected in BALB/c mouse assessed as reduction of bacterial burden in liver at 0.4 mg, ip bid administered at 12 hrs prior to bacterial infection dosed at 12 intervals for 4.5 days; format: functional, organism-based
Staphylococcus aureus [11] = test: Antibacterial activity against linezolid-resistant Staphylococcus aureus NRS271 infected in BALB/c mouse assessed as reduction of bacterial burden in heart at 0.1 mg, ip bid administered at 24 hrs prior to bacterial infection dosed at 12 intervals for 4.5 days
Staphylococcus aureus [12] = test: Antibacterial activity against linezolid-resistant Staphylococcus aureus NRS271 infected in BALB/c mouse assessed as reduction of bacterial burden in heart at 0.4 mg, ip bid administered at 24 hrs prior to bacterial infection dosed at 12 intervals for 4.5 days
[13] = target: T1, 4,4'-diapophytoene desaturase (4,4'-diaponeurosporene-forming); test: Inhibition of Staphylococcus aureus Newman […]-tagged CrtN expressed in Escherichia coli BL21(DE3))/pET28a::CrtN assessed as reduction in staphyloxanthin levels using diapophytoene as substrate after overnight incubation; set-up: species or system Staphylococcus aureus subsp. aureus str. Newman
[14] = target: T2, 4,4'-diapophytoene desaturase (4,4'-diaponeurosporene-forming) (Staphylococcus aureus (strain Mu50 / ATCC 700699), UniProt Q99R76); test: Inhibition of CrtN in vancomycin-intermediate Staphylococcus aureus Mu50 assessed as reduction in staphyloxanthin levels after 48 hrs by spectrophotometric method-based pigment inhibition assay; set-up: species or system Staphylococcus aureus subsp. aureus Mu50
T2 sequence (Q99R76 whole entry): T1 sequence (O07855 whole entry)

[15] = target: T1, 4,4'-diapophytoene desaturase (4,4'-diaponeurosporene-forming); test: Inhibition of CrtN in linezolid-resistant Staphylococcus aureus NRS271 assessed as reduction in staphyloxanthin levels after 48 hrs by spectrophotometric method-based pigment inhibition assay
[16] = target: T3, 4,4'-diapophytoene desaturase (4,4'-diaponeurosporene-forming) (Staphylococcus aureus (strain MW2), UniProt Q8NUQ6); test: Inhibition of CrtN in methicillin-resistant Staphylococcus aureus USA400 MW2 assessed as reduction in staphyloxanthin levels after 48 hrs by spectrophotometric method-based pigment inhibition assay; set-up: species or system Staphylococcus aureus subsp. aureus MW2
T3 sequence (Q8NUQ6 whole entry): T1 sequence (O07855 whole entry) with R500Q

[17] = target: T3, 4,4'-diapophytoene desaturase (4,4'-diaponeurosporene-forming); test: Inhibition of CrtN in methicillin-resistant Staphylococcus aureus LAC USA300 assessed as reduction in staphyloxanthin levels after 48 hrs by spectrophotometric method-based pigment inhibition assay; set-up: species or system Staphylococcus aureus subsp. aureus USA300
[18] = Solubility of the compound in water at 10 mg measured after 24 hrs by HPLC method; format: physicochemical
[19] = target: Voltage-gated inwardly rectifying potassium channel KCNH2 (Homo sapiens, UniProt Q12809); test: Inhibition of recombinant human ERG expressed in CHO cells at -80 mV holding potential measured after 3 minutes by automated whole cell patch clamp Qpatch method; format: cell-based
Sequence of Voltage-gated inwardly rectifying potassium channel KCNH2 (Q12809 whole entry): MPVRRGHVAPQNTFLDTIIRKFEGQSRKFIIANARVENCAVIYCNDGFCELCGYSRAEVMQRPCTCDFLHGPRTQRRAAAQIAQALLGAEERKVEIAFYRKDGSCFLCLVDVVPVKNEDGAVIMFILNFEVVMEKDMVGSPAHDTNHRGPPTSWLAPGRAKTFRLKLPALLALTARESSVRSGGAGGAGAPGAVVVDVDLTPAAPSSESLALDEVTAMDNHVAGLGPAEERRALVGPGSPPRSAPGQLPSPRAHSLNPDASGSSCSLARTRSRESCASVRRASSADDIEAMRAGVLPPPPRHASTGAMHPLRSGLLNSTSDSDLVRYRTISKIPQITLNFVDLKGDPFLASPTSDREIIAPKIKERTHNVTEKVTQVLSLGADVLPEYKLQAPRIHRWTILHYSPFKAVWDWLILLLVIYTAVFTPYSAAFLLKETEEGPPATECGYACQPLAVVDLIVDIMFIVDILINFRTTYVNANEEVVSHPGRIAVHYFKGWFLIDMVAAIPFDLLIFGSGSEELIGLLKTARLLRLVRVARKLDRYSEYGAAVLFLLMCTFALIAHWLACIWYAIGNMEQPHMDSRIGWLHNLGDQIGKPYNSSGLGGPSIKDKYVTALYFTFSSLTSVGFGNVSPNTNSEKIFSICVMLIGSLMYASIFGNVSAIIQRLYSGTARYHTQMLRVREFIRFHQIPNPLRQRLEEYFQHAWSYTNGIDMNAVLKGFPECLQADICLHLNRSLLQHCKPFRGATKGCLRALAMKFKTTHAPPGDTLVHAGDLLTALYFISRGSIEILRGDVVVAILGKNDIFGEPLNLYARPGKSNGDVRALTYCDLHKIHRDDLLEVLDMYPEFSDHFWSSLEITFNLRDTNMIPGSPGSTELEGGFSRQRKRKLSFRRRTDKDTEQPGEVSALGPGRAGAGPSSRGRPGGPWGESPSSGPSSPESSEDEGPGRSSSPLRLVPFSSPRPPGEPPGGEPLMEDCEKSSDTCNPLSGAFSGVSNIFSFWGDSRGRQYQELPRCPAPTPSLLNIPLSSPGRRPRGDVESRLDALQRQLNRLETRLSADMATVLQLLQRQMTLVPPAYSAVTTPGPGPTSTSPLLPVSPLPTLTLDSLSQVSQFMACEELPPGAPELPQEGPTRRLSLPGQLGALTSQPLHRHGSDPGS

Row | SMILES | IC50 [1] [nM] | also measured
1 | CN(C/C=C/c1cccc(F)c1)Cc1ccc2c(c1)OCCO2 | > 1000 | –
2 | Cc1ncc2n1-c1ccc(Cl)cc1C(c1ccccc1F)=NC2 [MIDAZOLAM] | – | half-life at 2 µM [2]: 4.2 min
3 | CC(=O)NC[C@H]1CN(c2ccc(N3CCOCC3)c(F)c2)C(=O)O1 | – | Activity (Staphylococcus aureus [3]): Active; Activity (Staphylococcus aureus [4]): Active; Activity (Staphylococcus aureus [5]): Active; Activity (Staphylococcus aureus [6]): Active; Activity (Staphylococcus aureus [7]): Active; Activity (Staphylococcus aureus [8]): Active; Activity (Staphylococcus aureus [9]): Active; Activity (Staphylococcus aureus [10]): Active; Activity (Staphylococcus aureus [11]): Active; Activity (Staphylococcus aureus [12]): Active
4 | CN(C/C=C/c1cccc2ccccc12)Cc1ccc2c(c1)OCCO2 | > 1000 | –
5 | CN(C/C=C/c1ccc(Cl)cc1)Cc1ccc2c(c1)OCCO2 | 6.7 | –
6 | CN(C/C=C/c1ccc(C(F)(F)F)cc1F)Cc1ccc2c(c1)OCCO2 | 8.8 | –
7 | CN(C/C=C/c1cccc(C(F)(F)F)c1)Cc1ccc2c(c1)OCCO2 | > 1000 | –
8 | COc1ccc(/C=C/CN(C)Cc2ccc3c(c2)OCCO3)cc1 | 48.6 | –
9 | COc1cccc(/C=C/CN(C)Cc2ccc3c(c2)OCCO3)c1 | > 1000 | –
10 | CN(C/C=C/c1ccccc1C(F)(F)F)Cc1ccc2c(c1)OCCO2 | > 1000 | –
11 | CN(C/C=C/c1cccc(Cl)c1)Cc1ccc2c(c1)OCCO2 | 112 | –
12 | CN(C/C=C/c1ccccc1)Cc1ccc2c(c1)OCCO2 | 371 | –
13 | CN(C/C=C/C1CCCCC1)Cc1ccc2c(c1)OCCO2 | > 1000 | –
14 | CN(C/C=C/c1ccccc1[N+](=O)[O-])Cc1ccc2c(c1)OCCO2 | > 1000 | –
15 | CN(C/C=C/c1ccc(C(C)(C)C)cc1)Cc1ccc2c(c1)OCCO2 | 156 | –
16 | CN(C/C=C/c1cccc([N+](=O)[O-])c1)Cc1ccc2c(c1)OCCO2 | > 1000 | –
17 | CN(C/C=C/c1ccc(-c2ccccc2)cc1)Cc1ccc2c(c1)OCCO2 | 4.1 | –
18 | CN(C/C=C/c1ccc(C(F)(F)F)c(F)c1)Cc1ccc2c(c1)OCCO2 | 13.7 | –
19 | CCOc1ccc(/C=C/CN(C)Cc2ccc3c(c2)OCCO3)cc1 | 8.2 | –
20 | CN(C/C=C/c1ccc(C(F)(F)F)cc1)Cc1ccc2c(c1)OCCO2.Cl | 2.9 | IC50 [13]: 341 nM; IC50 [14]: 1.2 nM; IC50 [15]: 1.1 nM; IC50 [16]: 6.5 nM; IC50 [17]: 5.9 nM; solubility at 24 h [18]: 13500 µg/mL
21 | CN(C/C=C/c1ccc(C#N)cc1)Cc1ccc2c(c1)OCCO2 | 19.2 | –

Row | SMILES | IC50 [1] [nM] | also measured
22 | CN[C@H](CC(C)C)C(=O)N[C@H]1C(=O)N[C@@H](CC(N)=O)C(=O)N[C@H]2C(=O)N[C@H]3C(=O)N[C@H](C(=O)N[C@H](C(=O)O)c4cc(O)cc(O)c4-c4cc3ccc4O)[C@H](O)c3ccc(c(Cl)c3)Oc3cc2cc(c3O[C@@H]2O[C@H](CO)[C@@H](O)[C@H](O)[C@H]2O[C@H]2C[C@](C)(N)[C@H](O)[C@H](C)O2)Oc2ccc(cc2Cl)[C@H]1O | – | Activity (Staphylococcus aureus [3]): Active; Activity (Staphylococcus aureus [4]): Active; Activity (Staphylococcus aureus [5]): Active; Activity (Staphylococcus aureus [6]): Active; Activity (Staphylococcus aureus [7]): Active; Activity (Staphylococcus aureus [8]): Active
23 | CN(C/C=C/c1ccc([N+](=O)[O-])cc1)Cc1ccc2c(c1)OCCO2 | 18.9 | –
24 | C/C=C/CN(C)Cc1ccc2c(c1)OCCO2 | > 1000 | –
25 | COc1ccc(/C=C/CN(C)Cc2ccc3c(c2)OCCO3)cc1F | 57.9 | –
26 | Cc1ccccc1/C=C/CN(C)Cc1ccc2c(c1)OCCO2 | > 1000 | –
27 | CN(C/C=C/c1ccc(Br)cc1)Cc1ccc2c(c1)OCCO2 | 8.2 | –
28 | CN(C/C=C/C1CCCC1)Cc1ccc2c(c1)OCCO2 | 321 | –
29 | CN(C/C=C/c1ccco1)Cc1ccc2c(c1)OCCO2 | 228 | –
30 | CN(C/C=C/c1ccccc1Cl)Cc1ccc2c(c1)OCCO2 | 90.3 | –
31 | CN(C/C=C/c1ccc(C(F)(F)F)cc1)Cc1ccc2c(c1)CCCC2.Cl | – | solubility at 24 h [18]: 690 µg/mL
32 | Cc1cccc(/C=C/CN(C)Cc2ccc3c(c2)OCCO3)c1 | 43.4 | –
33 | CN(C/C=C/c1cccs1)Cc1ccc2c(c1)OCCO2 | 221 | –
34 | CN(C/C=C/c1ccc(Cl)cc1Cl)Cc1ccc2c(c1)OCCO2 | 15 | –
35 | Cc1ccc(/C=C/CN(C)Cc2ccc3c(c2)OCCO3)cc1.Cl | 3.2 | IC50 [19]: 4.6 µM; solubility at 24 h [18]: 6500 µg/mL
36 | CN(C/C=C/C=C/C=C/c1ccc(C(F)(F)F)cc1)Cc1ccc2c(c1)OCCO2.Cl | 1.6 | IC50 [13]: 258 nM; IC50 [14]: 1.2 nM; IC50 [15]: 0.4 nM; IC50 [16]: 5.3 nM; IC50 [17]: 3.7 nM; IC50 [19]: 8.7 µM; solubility at 24 h [18]: 3300 µg/mL
37 | COc1ccc(/C=C/CN(C)Cc2ccc3c(c2)CCCCC3)cc1.Cl | – | IC50 [16]: 7.1 nM; IC50 [17]: 7.7 nM; solubility at 24 h [18]: 4200 µg/mL
38 | CN(C/C=C/c1ccc(F)cc1)Cc1ccc2c(c1)OCCO2 | 20.1 | –
39 | CN(C/C=C/c1ccccc1F)Cc1ccc2c(c1)OCCO2 | > 1000 | –
40 | COc1ccc(/C=C/CN(C)Cc2ccc3c(c2)OCCO3)c(F)c1 | 43.5 | –
41 | COc1ccccc1/C=C/CN(C)Cc1ccc2c(c1)OCCO2 | > 1000 | –
